Laboratory results: article PMC9075979 (Molecular Therapy, 2022)

Target: Omicron variant RBD or S1 domains-hACE2 binding (Homo sapiens, UniProt Q9BYF1)
Sequence (Q9BYF1 18-740, stated change not applied): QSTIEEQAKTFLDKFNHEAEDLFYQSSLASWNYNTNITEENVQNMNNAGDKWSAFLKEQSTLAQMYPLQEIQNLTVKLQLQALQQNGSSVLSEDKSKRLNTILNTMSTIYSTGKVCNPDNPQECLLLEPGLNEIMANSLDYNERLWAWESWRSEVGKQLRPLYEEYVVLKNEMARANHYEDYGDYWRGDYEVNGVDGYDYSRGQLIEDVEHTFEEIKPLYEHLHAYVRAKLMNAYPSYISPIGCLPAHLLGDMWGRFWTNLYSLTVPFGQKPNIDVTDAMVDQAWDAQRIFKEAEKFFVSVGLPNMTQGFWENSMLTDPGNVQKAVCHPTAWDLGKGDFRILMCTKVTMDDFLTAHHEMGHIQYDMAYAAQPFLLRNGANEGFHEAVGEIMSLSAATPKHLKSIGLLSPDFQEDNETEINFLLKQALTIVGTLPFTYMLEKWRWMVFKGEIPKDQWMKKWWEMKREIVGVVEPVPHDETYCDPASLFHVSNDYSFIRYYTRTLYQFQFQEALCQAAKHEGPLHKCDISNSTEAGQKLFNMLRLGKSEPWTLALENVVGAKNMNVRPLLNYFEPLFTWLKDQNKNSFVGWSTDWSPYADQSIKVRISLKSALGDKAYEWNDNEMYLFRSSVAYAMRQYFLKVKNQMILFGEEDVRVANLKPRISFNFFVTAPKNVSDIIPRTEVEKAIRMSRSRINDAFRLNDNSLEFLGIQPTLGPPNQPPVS

c1ccc(-c2ccc(C(c3ccccc3)n3ccnc3)cc2)cc1 (stereo not shown) [bifonazole]
binding of Omicron variant RBD or S1 bioreporters to hACE2: significantly reduced binding
